The values that follow come from patent EP4810040A2, “INHIBITORS OF APOL1 AND METHODS OF USING SAME” (priority 2020, dated 2022).

The assay addresses T1, APOL1 G1 (Homo sapiens, UniProt O14791, I384M/S342G).
T1 sequence (O14791 28-398 S342G/I384M): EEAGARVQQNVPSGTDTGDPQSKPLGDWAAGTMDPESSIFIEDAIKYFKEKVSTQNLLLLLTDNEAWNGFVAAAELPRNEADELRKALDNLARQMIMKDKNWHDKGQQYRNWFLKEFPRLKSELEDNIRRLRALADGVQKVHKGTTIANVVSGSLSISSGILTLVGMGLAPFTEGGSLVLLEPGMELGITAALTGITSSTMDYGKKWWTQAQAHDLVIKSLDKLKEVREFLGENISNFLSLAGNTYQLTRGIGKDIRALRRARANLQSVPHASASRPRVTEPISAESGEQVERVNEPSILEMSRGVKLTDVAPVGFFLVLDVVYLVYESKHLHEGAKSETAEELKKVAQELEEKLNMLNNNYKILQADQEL
Put plainly: MultiTox-Fluor Multiplex Cytotoxicity Assay, tet-inducible APOL1 G1 T-REx-HEK293 cells. Details: expressed in transfected cells; host or cells: T-REx HEK293, clone G1 DC3.25 (pAAVS1-Puro-APOL1 G1). The note with it: for IC90: read-out: Multi-Tox Assay IC90; for Emax: read-out: Multi-Tox Assay Max Activity (%). In kind it is cell-based. The method in brief: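 T-REx-HEK293 cells carrying tet-inducible APOL1 G1 induced with 50 ng/mL tet alongside compound (top 10 µM, 10-point 3-fold, duplicate) for 24 h at 37 °C. MultiTox-Fluor dead/live protease fluorescence ratio read after 30 min; normalized to no-tet (100% viability) and tet-treated (0%) controls, then curve-fitted.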

Where [1] appears, read: HEK293, Multi-Tox Assay, APOL1 variant (G0/G1/G2) of the HEK293 cells not given.
Where [2] appears, read: Multi-Tox Assay, APOL1 variant not given.
[3] abbreviates: Multi-Tox Assay, APOL1 variant (G0/G1/G2) not stated in Table 46.
Setting [4] is: Multi-Tox Assay, APOL1 variant not stated in Table 46.

pIC50: −log10 of the molar value. Like-named read-outs stand apart in the source and are kept apart here.

Broadly, the IC90 is the concentration needed for an effect of 90%. `C#C[C@@H]1C[C@]2(C[C@H](C)N1)OC[C@@H](O)c1cc(Cl)sc12` [Compound 222, (2'S,4S,6'S,7S)-2-chloro-2'-ethynyl-6'-methyl-spiro[4,5-dihydrothieno[2,3-c]pyran-7,4'-piperidine]-4-ol]: the IC90 under setting [1] lay within 50 to 500 nM. Besides, the Emax under setting [2] was 100%.
Take `C[C@H]1C[C@@]2(C[C@@H](c3cn(CC4CCCCO4)nn3)N1)OCC(F)(F)c1cc(Cl)sc12` (stereo partly drawn) [Compound 343]: the IC90 under setting [1] lay in the range of 50 to 500 nM. The “Multi-Tox Assay Max Activity (%)” value under setting [2] is reported as 97.0%.
For `C[C@H]1C[C@@]2(C[C@@H](c3cn(CC4CCOCC4)nn3)N1)OCC(F)(F)c1cc(Cl)sc12` [Compound 309], in that order: 50 to 500 nM and 97.0%.
On the same counts, the results for `COc1nccc([C@@H]2C[C@]3(C[C@H](C)N2)OCCc2cc(Cl)sc23)n1` (racemic) [Compound 110] are 50 to 500 nM and 99.2%.
For `C[C@H]1C[C@@]2(C[C@@H](c3cn(Cc4cccc5c4OCCO5)nn3)N1)OCC(F)(F)c1cc(Cl)sc12` [Compound 310], in that order: over 500 nM and 94.0%.
As to `C[C@H]1C[C@@]2(C[C@@H](c3ccc(O)cn3)N1)OCCc1cc(Cl)sc12` (racemic) [Compound 59], under setting [1], the IC90 is under 50 nM. For the same molecule, the “Multi-Tox Assay Max Activity (%)” value under setting [2] worked out at 99.3%.
For `C[C@H]1C[C@@]2(C[C@@H](c3cn(CCCS(C)(=O)=O)nn3)N1)OC[C@@H](O)c1cc(Cl)sc12` [Compound 228], in that order: 50 to 500 nM and 100.0%.
On the same counts, the results for `CC1COC2(C[C@@H](c3cn(C)nn3)N[C@@H](C)C2)c2cc(C(F)(F)F)sc21` (stereo partly drawn) [Compound 14] are 50 to 500 nM and 99.3%.
`C[C@H]1C[C@@]2(C[C@@H](c3cn(Cc4ccc5nc(O)[nH]c5c4)nn3)N1)OC[C@@H](O)c1cc(Cl)sc12` [Compound 249]: under setting [1], the IC90 is over 500 nM. Also, under setting [2], the “Multi-Tox Assay Max Activity (%)” value turned out to be 92.0%.
`COc1ccc(Cn2cc([C@@H]3C[C@]4(C[C@H](C)N3)OCC(F)(F)c3cc(Cl)sc34)nn2)cn1` [Compound 360]: the IC90 under setting [1] lay within 50 to 500 nM.
As to `C[C@@H]1CC2(C[C@H](C)N1)OCCc1sc(C(F)(F)F)cc12` (single isomer, unassigned) [Compound 196], under setting [1], the concentration for an effect of 90% (IC90) was in the range of 50 to 500 nM. In addition, the Emax under setting [2] was determined as 99%.
For the molecule `Cc1ccccc1C(O)Cn1cc([C@@H]2C[C@]3(C[C@H](C)N2)OC[C@@H](O)c2cc(Cl)sc23)nn1` (stereo partly drawn) [Compound 261], the IC90 under setting [1] fell in the range of 50 to 500 nM. Besides, the “Multi-Tox Assay Max Activity (%)” value under setting [2] worked out at 100.0%.
`C[C@H]1C[C@@]2(C[C@@H](c3ccc(O)nc3)N1)OCCc1cc(Cl)sc12` (racemic) [Compound 68]: the IC90 under setting [1] was under 50 nM. For the same molecule, the Emax under setting [2] turned out to be 99.7%.
In the case of `C[C@H]1C[C@@]2(C[C@@H](c3cn(Cc4cnc5cnccn45)nn3)N1)OC[C@@H](O)c1cc(Cl)sc12` [Compound 243], the IC90 under setting [1] lay within 50 to 500 nM. In addition, the “Multi-Tox Assay Max Activity (%)” value under setting [2] is 98.0%.
On the same counts, the results for `C[C@H]1C[C@@]2(C[C@@H](c3cn(Cc4ccc(O)cc4)nn3)N1)OCC(F)(F)c1cc(Cl)sc12` [Compound 302] are 50 to 500 nM and 94.0%.
With `Cn1cc(C2CC3(CC(C4CCC4)N2)OCCc2cc(Cl)sc23)nn1` (stereo not drawn) [Compound 189], under setting [1], the IC90 is over 500 nM. Under setting [2], the Emax is 97%.
Take `CCC(O)Cn1cc([C@@H]2C[C@]3(C[C@H](C)N2)OC[C@@H](O)c2cc(Cl)sc23)nn1` (stereo partly drawn) [Compound 284]: the IC90 under setting [1] was 50 to 500 nM. Besides, the “Multi-Tox Assay Max Activity (%)” value under setting [2] was found to be 101.0%.
Consider `Cn1cc([C@@H]2C[C@]3(C[C@H](C4CC4)N2)OC[C@@H](O)c2cc(Cl)sc23)nn1` [Compound 382, (2'R,4S,6'S,7S)-2-chloro-2'-cyclopropyl-6'-(1-methyltriazol-4-yl)spiro[4,5-dihydrothieno[2,3-c]pyran-7,4'-piperidine]-4-ol], for which, under setting [3], the IC90 was 50 to 500 nM. In addition, the Emax under setting [4] is 100%.
Take `CCc1cc2c(s1)CCOC21CC(C)NC(c2cn(C)nn2)C1` (single isomer, unassigned) [Compound 4]: under setting [1], the IC90 was under 50 nM. Moreover, under setting [2], the Emax turned out to be 99.3%.
As to `Cc1cnc([C@@H]2C[C@]3(C[C@H](C)N2)OCCc2cc(Cl)sc23)o1` (racemic) [Compound 134], under setting [1], the IC90 fell in the range of 50 to 500 nM. For the same molecule, the “Multi-Tox Assay Max Activity (%)” value under setting [2] is listed as 99.2%.
For `C[C@H]1C[C@@]2(C[C@@H](c3cn(C)c(=O)n(C)c3=O)N1)OCCc1cc(Cl)sc12` (racemic) [Compound 124], in that order: 50 to 500 nM and 99.3%.
Regarding `C[C@H]1C[C@@]2(C[C@@H](c3c[nH]cn3)N1)OCCc1cc(Cl)sc12` (racemic) [Compound 85], under setting [1], the IC90 was under 50 nM. Also, the Emax under setting [2] was 99.3%.
For `C[C@H]1C[C@@]2(C[C@@H](c3cn(CCOc4ccccc4F)nn3)N1)OC[C@@H](O)c1cc(Cl)sc12` [Compound 301], under setting [1], the IC90 is under 50 nM.
On to `CC1CC2(CC(C3CC3(F)F)N1)OCCc1cc(Cl)sc12` (single isomer, unassigned) [Compound 212], for which, under setting [1], the IC90 was under 50 nM. Besides, the Emax under setting [2] was found to be 99%.
Turning to `CC1CC2(CC(C)N1)OCCc1cc(Cl)sc12` (mixture of isomers) [Compound 194, 2-chloro-2',6'-dimethyl-spiro[4,5-dihydrothieno[2,3-c]pyran-7,4'-piperidine]], the IC90 under setting [1] lay within 50 to 500 nM. In addition, under setting [2], the Emax was 98.7%.
For `CC1CC2(CC(C3CC3)N1)OCCc1cc(Cl)sc12` (mixture of isomers) [Compound 217], in that order: under 50 nM and 99.2%.
Regarding `C[C@H]1C[C@@]2(C[C@@H](c3cn(CCC(N)=O)nn3)N1)OCC(F)(F)c1cc(Cl)sc12` [Compound 328], the IC90 under setting [1] was 50 to 500 nM. Further, the “Multi-Tox Assay Max Activity (%)” value under setting [2] is given as 100.0%.
`C[C@H]1C[C@@]2(C[C@@H](c3cn(Cc4cccc(CO)c4)nn3)N1)OC[C@@H](O)c1cc(Cl)sc12` [Compound 271]: the IC90 under setting [1] is 50 to 500 nM. Moreover, under setting [2], the “Multi-Tox Assay Max Activity (%)” value was found to be 97.0%.
For `Cc1noc(C)c1Cn1cc([C@@H]2C[C@]3(C[C@H](C)N2)OCC(F)(F)c2cc(Cl)sc23)nn1` [Compound 353], in that order: under 50 nM and 100.0%.
Take `C[C@@H]1CC2(C[C@H](C)N1)OCCc1cc(C3CCCCC3)sc12` (single isomer, unassigned) [Compound 202]: under setting [1], the IC90 is over 500 nM. Further, the Emax under setting [2] stood at 94.7%.
With `COc1ccnc([C@@H]2C[C@]3(C[C@H](C)N2)OCCc2cc(Cl)sc23)n1` (racemic) [Compound 145], under setting [1], the IC90 was over 500 nM. Further, the “Multi-Tox Assay Max Activity (%)” value under setting [2] turned out to be 97.7%.
On the same counts, the results for `Cc1nccn1CCCn1cc([C@@H]2C[C@]3(C[C@H](C)N2)OCC(F)(F)c2cc(Cl)sc23)nn1` [Compound 341] are over 500 nM and 98.0%.
In the case of `Cc1ncc([C@@H]2C[C@]3(C[C@H](C)N2)OCCc2cc(Cl)sc23)o1` (racemic) [Compound 94], the IC90 under setting [1] was under 50 nM. Besides, the Emax under setting [2] worked out at 100%.
In the case of `Cc1nc([C@@H]2C[C@]3(C[C@H](C)N2)OCCc2cc(Cl)sc23)c[nH]1` (racemic) [Compound 156], the IC90 under setting [1] is over 500 nM. The “Multi-Tox Assay Max Activity (%)” value under setting [2] is 93.0%.
For the molecule `C[C@H]1C[C@@]2(C[C@@H](c3cccc(NS(C)(=O)=O)c3)N1)OCCc1cc(Cl)sc12` (racemic) [Compound 115], the IC90 under setting [1] lay within 50 to 500 nM. Moreover, under setting [2], the “Multi-Tox Assay Max Activity (%)” value is 99.3%.
The term pIC50 denotes −log10 of the IC50, conventionally taken in molar units. The low end stands for a large IC50, the high end for a small IC50. For the molecule `C[C@H]1C[C@@]2(C[C@@H](c3cn(CC#N)nn3)N1)OCC(F)(F)c1cc(Cl)sc12` [Compound 369], the IC90 under setting [3] was over 500 nM. Further, under setting [4], the “Multi-Tox Assay Max Activity (%)” value turned out to be 98.0%. Also, under “Multi-Tox Assay, IP50 = IC50 for cell proliferation, APOL1 variant not stated in Table 46”, the pIC50 was 6.30 to 7.30.
Regarding `Cn1cc([C@@H]2C[C@]3(C[C@H](C4CC4)N2)OCCc2cc(C(F)(F)F)sc23)nn1` [Compound 383, (2'R,6'S,7S)-2'-cyclopropyl-6'-(1-methyltriazol-4-yl)-2-(trifluoromethyl)spiro[4,5-dihydrothieno[2,3-c]pyran-7,4'-piperidine]], the IC90 under setting [3] is under 50 nM. Under setting [4], the Emax stood at 100%.
`Cc1nn(CCO)cc1[C@@H]1C[C@]2(C[C@H](C)N1)OCCc1cc(Cl)sc12` (racemic) [Compound 158]: the 90% effect concentration (IC90) under setting [1] is over 500 nM. Moreover, the “Multi-Tox Assay Max Activity (%)” value under setting [2] was determined as 90.4%.
For `Cc1ccc([C@@H]2C[C@]3(C[C@H](C)N2)OCCc2cc(Cl)sc23)nn1` (racemic) [Compound 58], in that order: under 50 nM and 99.7%.
In the case of `C[C@H]1C[C@@]2(C[C@@H](c3cn(C[C@@H](O)CO)nn3)N1)OCC(F)(F)c1cc(Cl)sc12` [Compound 363], the IC90 under setting [3] fell in the range of 50 to 500 nM.
